Literature values in US20100330150A1, “Orally Disintegrating Tablet Compositions Comprising Combinations of High and Low-Dose Drugs” (priority 2009, published 2010).

Assays:
serum protein = details: after normal therapeutic dosages

Binding to serum protein (serum protein): about 25%
Plasma half-life (normal, healthy patients): 1 to 2.5 h
Time after which only traces of the drug are detectable (oral administration): about 8 hours
Time at which peak plasma concentrations are attained (oral administration): 30 to 60 min
Structure (SMILES): CC(=O)Nc1ccc(O)cc1 [acetaminophen]
